Assay results from patent US20220322671A1, “METHODS TO REDUCE CONTAMINATION, BIOFILM AND FOULING FROM WATER SYSTEMS, SURFACES, AND PRODUCTS” (Aequor, Inc., priority 2019, published 2022).
Where “and” joins values, the source holds several entries; their conditions need not be identical. Identical values can stand only once. Like-named read-outs stand apart in the source and are kept apart here.

Tests used:
C. marina ATCC 25374 [1] = assay: Minimum bactericidal concentration, C. marina; type: cell-based
C. marina ATCC 25374 [2] = assay: MIC broth microdilution, C. marina; type: cell-based
[3] = tested on: C. marina ATCC 25374 biofilm; assay: MBEC biofilm eradication assay, C. marina; type: cell-based
E. coli ATCC 11775 = assay: MIC broth microdilution, E. coli; type: cell-based
MRSA ATCC 33591 = assay: MIC broth microdilution, MRSA; type: cell-based, S. aureus Methicillin-Resistant
S. aureus ATCC 12600 = assay: MIC broth microdilution, S. aureus; type: cell-based
[4] = tested on: Heterochlorella luteoviridis cf. (SAG 2203); assay: Algae growth inhibition; type: cell-based; conditions: 1% concentration, 14 days, absorbance 750 nm
Procedure: The molecules (SDBS, SDS, SEHS, and DBSA) were added to the growth culture medium of algae Heterochlorella luteoviridis cf. (SAG 2203.) Algae was grown in 50 ml tubes at 28 °C for 14 days. Absorbance (optical density) was measured at 750 nm in a spectrophotometer and used to determine concentration to inhibit the growth of algae.

A. niger ATCC 16888 = assay: MIC broth microdilution, A. niger; type: cell-based
L. fermentum (ATCC 9338) = assay: MIC broth microdilution, L. fermentum; type: cell-based, Lactobacillus fermentum
P. aeruginosa NR-31041 = assay: MIC broth microdilution, P. aeruginosa; type: cell-based, Pseudomonas aeruginosa
[5] = C. marina ATCC 25374, materials in water
[6] = 24- and 48-hour biofilm, 30 min exposure

For `CCCCOP(=O)(O)OCCCC` [DBP, dibutyl phosphate], the “% Reduction Compared to Control” value (C. marina ATCC 25374 [1]) was 99.9999%, the CFU/ml (C. marina ATCC 25374 [1]) was <1E+02^1 CFU/ml and the “Minimum Bactericidal Concentration (% v/v) CLSI M26-A Method” value (C. marina ATCC 25374 [1]) was 0.5000 % v/v. For the same compound, the “Growth of C. marina (in words)” value (C. marina ATCC 25374 [2]) was “inhibited growth”, the “Minimum Inhibitory Concentration (% v/v) M07-09 Method” value (C. marina ATCC 25374 [2]) was 0.1250 % v/v and the “% Reduction Compared to Control” value [3] was 99.9999% and 99.999%. The “Log Reduction” value [3] was 5.5 and the “MBEC ASTM E2799-12 Method (% v/v)” value [3] was 0.5 % v/v.
`CCCCCCCCCCCCc1ccc(S(=O)(=O)O)cc1` [DBSA, 4-Dodecylbenzenesulfonic acid] was tested, and the “Minimum Inhibitory Concentration (MIC) M07-09 Method, EC” value (E. coli ATCC 11775; E. coli ATCC 11775) was 0.100 % v/v, the “Minimum Inhibitory Concentration (MIC) M07-09 Method, MRSA” value (MRSA ATCC 33591) was 0.003 % v/v and the “% Reduction Compared to Control” value (C. marina ATCC 25374 [1]; C. marina ATCC 25374, killing) was 99.9999%. The “Minimum Bactericidal Concentration (% v/v) CLSI M26-A Method” value (C. marina ATCC 25374 [1]; [5]) was 0.0078 % v/v, the CFU/ml (C. marina ATCC 25374 [1]; C. marina ATCC 25374, detection limit <1E+02) was <1E+02^1 CFU/ml and the “Growth of C. marina (in words)” value (C. marina ATCC 25374 [2]; C. marina) was “inhibited growth”. The “Minimum Inhibitory Concentration (% v/v) M07-09 Method” value (C. marina ATCC 25374 [2]; [5]) was < 0.0039 % v/v, the “Minimum Inhibitory Concentration (MIC) M07-09 Method, SA” value (S. aureus ATCC 12600; S. aureus ATCC 12600) was 0.003 % v/v and the Algae growth [4] was “inhibited”. For the same compound, the “Minimum Inhibitory Concentration (MIC) M07-09 Method, AN” value (A. niger ATCC 16888; A. niger ATCC 16888) was 0.003 % v/v, the “Minimum Inhibitory Concentration (MIC) (% v/v) M07-09 Method, L. fermentum” value (L. fermentum (ATCC 9338)) was 0.0150 % v/v and the “Minimum Inhibitory Concentration (MIC) M07-09 Method, PA” value (“Minimum Inhibitory Concentration … PA” below) (P. aeruginosa NR-31041; P. aeruginosa NR-31041) was 0.500 % v/v. For the same compound, the “MBEC ASTM E2799-12 Method (% v/v)” value [3, 6] was >0.5 % v/v, the “% Biofilm Removal Efficacy” value ([3]; 48-hour biofilm, 0.0078 % v/v) was 73.64% and the “Log Reduction” value ([3]; 48-hour biofilm, 0.0078 % v/v) was 0.58. For the same compound, the “% Biofilm Removal Efficacy” value ([3]; 48-hour biofilm, 0.0156 % v/v) was 86.36%, the “Log Reduction” value ([3]; 48-hour biofilm, 0.0156 % v/v) was 0.87 and the “% Biofilm Removal Efficacy” value ([3]; 48-hour biofilm, 0.0313 % v/v) was 96.27%. For the same compound, the “Log Reduction” value ([3]; 48-hour biofilm, 0.0313 % v/v) was 1.43, the “% Biofilm Removal Efficacy” value ([3]; 48-hour biofilm, 0.0630 % v/v) was 98.27% and the “Log Reduction” value ([3]; 48-hour biofilm, 0.0630 % v/v) was 1.76. The “Removal of existing 48-hour biofilm (up to)” value ([3]; 48-hour biofilm, best of the tested concentrations) was ≤ 99%.
For `CCCCC(CC)COS(=O)(=O)[O-].[Na+]` (stereo not drawn) [SEHS, sodium 2-ethylhexylsulfate], the “% Reduction Compared to Control” value (C. marina ATCC 25374 [1]) was 99.9999%, the CFU/ml (C. marina ATCC 25374 [1]) was <1E+02^1 CFU/ml and the “Minimum Bactericidal Concentration (% v/v) CLSI M26-A Method” value (C. marina ATCC 25374 [1]) was 0.0630 % v/v. For the same compound, the “Growth of C. marina (in words)” value (C. marina ATCC 25374 [2]) was “inhibited growth”, the “Minimum Inhibitory Concentration (% v/v) M07-09 Method” value (C. marina ATCC 25374 [2]) was 0.0313 % v/v and the “Minimum Inhibitory Concentration (MIC) M07-09 Method, SA” value (S. aureus ATCC 12600) was 0.280 % v/v. For the same compound, the Algae growth [4] was “inhibited”, the “Minimum Inhibitory Concentration … PA” value (P. aeruginosa NR-31041) was 0.500 % v/v and the “MBEC ASTM E2799-12 Method (% v/v)” value [3, 6] was >0.5 % v/v.
`CCCCCCCCCCCCOS(=O)(=O)[O-].[Na+]` [SDS, sodium dodecyl sulfate] was tested, and the “Minimum Inhibitory Concentration (MIC) M07-09 Method, EC” value (E. coli ATCC 11775) was 0.100 % v/v, the “Minimum Inhibitory Concentration (MIC) M07-09 Method, MRSA” value (MRSA ATCC 33591) was 0.028 % v/v and the “Minimum Inhibitory Concentration (MIC) M07-09 Method, SA” value (S. aureus ATCC 12600) was 0.028 % v/v. For the same compound, the Algae growth [4] was “inhibited”, the “Minimum Inhibitory Concentration (MIC) M07-09 Method, AN” value (A. niger ATCC 16888) was 0.030 % v/v and the “Minimum Inhibitory Concentration … PA” value (P. aeruginosa NR-31041) was 0.500 % v/v.
